The values that follow come from PMC11602115 (Journal of Medicinal Chemistry, 2017).

Read-outs that look alike come from different tables or passages of the source. A value given as a limit tells only on which side of the number the result lay.

Series [1] addresses CYP 2C19 (Homo sapiens, UniProt P33261). The experiment in a line: Cytochrome P450 inhibition, CYP2C19. The class given is in vitro ADME.
Series [2] is described as follows: Plasma protein binding. The conditions noted are these: across all species. The class given is in vitro ADME.
Series [3] is described as follows: Stability in human microsome preparations. The class given is in vitro ADME. The conditions noted are these: incubation at 37 °C, human microsomes; read-out: human MS, T1/2. The source says:
Table 1 Screening Data for Selected Analogues ^a | column: human and rat MS, T1/2 (min) ^g

The target of series [4] is rat IP (Rattus norvegicus, UniProt P43253). The experiment in a line: Radioligand binding, rat IP ([3H]-iloprost). Set-up: expressed in transfected cells; host or cells: CHO-K1 (crude membranes). As for the experimental part:
(§1) CHO-K1 cells expressing recombinant IP receptors were harvested, washed with ice-cold phosphate buffered saline, pH 7.4 (PBS), and then centrifuged at 48 000g for 20 min at 4 °C. The resulting cell pellet was then resuspended in ice-cold PBS containing 20 mM HEPES, pH 7.4, and 0.1 mM EDTA, homogenized on ice using a Brinkman Polytron, and centrifuged (48 000g for 20 min at 4 °C). This resuspension and centrifugation process was repeated one further time. Crude membrane pellets were stored at −80 °C until used for radioligand binding assays.
(§2) Assay incubations were terminated by rapid filtration through PerkinElmer GF/C filtration plates pretreated with 0.3% PEI, under vacuum pressure using a 96-well Packard filtration apparatus, followed by multiple washes with ice-cold wash buffer (PBS containing 20 mM HEPES and 0.1 mM EDTA, pH 7.4). Plates were then dried at 45 °C for a minimum of 2 h. Finally, 25 μL of BetaScint scintillation cocktail was added to each well and plates were counted in a Packard TopCount scintillation counter. In each competition study, test compounds were dosed at 10 concentrations with triplicate determinations at each test concentration. A reference compound, typically iloprost, was included in every runset for quality control purposes.

Series [5] has as its target T1, EP3v6 (Homo sapiens, UniProt P43115).
T1 sequence (P43115 1-374 isoform P43115-4): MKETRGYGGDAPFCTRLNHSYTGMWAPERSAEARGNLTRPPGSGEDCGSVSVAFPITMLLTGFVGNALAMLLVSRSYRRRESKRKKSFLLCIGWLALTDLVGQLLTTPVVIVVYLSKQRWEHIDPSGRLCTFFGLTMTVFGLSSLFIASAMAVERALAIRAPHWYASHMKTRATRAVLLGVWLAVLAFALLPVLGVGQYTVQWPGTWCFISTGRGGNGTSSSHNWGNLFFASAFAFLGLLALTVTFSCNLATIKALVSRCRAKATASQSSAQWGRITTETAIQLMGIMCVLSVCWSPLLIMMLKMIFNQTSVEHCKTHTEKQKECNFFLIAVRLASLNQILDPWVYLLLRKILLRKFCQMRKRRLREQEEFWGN
The experiment in a line: Radioligand binding, EP3v6 ([3H]-PGE2). Set-up: purchased MDS Pharma (Taiwan) and CEREP (France), contract assays. As to conditions: for Ki: cloned human receptor. On the procedure: (§3) Additional (non-IP) receptor binding assays were carried out by MDS Pharma (Taiwan) and CEREP (France).

Series [6] deals with MCT-induced PAH. In words: Rat monocrotaline (MCT) model of PAH, preventative oral dosing. The conditions noted are these: for inhibition of the MCT-induced increase in RV/(LV + S): oral, twice daily for 21 days, preventative mode. The class given is in vivo, male Sprague-Dawley rats. As for the experimental part:
Following anesthesia by intraperitoneal injection of 30 mg/kg pentobarbital, rats were given a subcutaneous injection of either 60 mg/kg MCT (Sigma, catalog no. C2401-1G) or 0.9% saline for the sham group. […] Hemodynamic measurements were performed with animals from the 30 mg/kg group (but not the 10 mg/kg group) anesthetized with 60 mg/kg pentobarbital. Under anesthesia, each animal was intubated with a rodent ventilator (Harvard Apparatus, model 683) at 70 breaths/min of a rate and a tidal volume of 2.5 mL in supine position on a heating pad set at 37 °C. A small opening in the apex of the right ventricle was made using a 23G needle, then a Millar catheter (Millar Instruments, Inc. model SPR-320) was placed into the right ventricle through the opening in the apex, then into the pulmonary artery (PA) for the pressure measurement. A second catheter was inserted through the […] for the measurement of mean arterial pressure. After stabilization, heart rate, mean arterial pressure, and systolic RV pressure were calculated from 20 consecutive heart beats in each rat.
The ventricles and lungs were excised and weighed. The ratio of RV weight to left ventricle plus septum (LV + S) was calculated as an index of right ventricular hypertrophy.
As the collection and preservation of the tissues are very resource intensive, 5 animals were selected from each group for measurement of vessel thickness; this was sufficient to obtain clear statistical differences between groups. Paraffin sections of 4 μm thickness were obtained from the lower region of the right lung and stained with hematoxylin/eosin. Analysis of the medial wall thickness of the pulmonary arterioles was performed. In brief, the external diameter and medial wall thickness were measured in 20 muscular arteries (25–100 μm external diameters) per lung section. For each artery, the medial wall thickness was expressed as follows: % wall thickness = [(external diameter – internal diameter)/external diameter] × 100. Each vessel was measured twice, perpendicularly along the long axis and short axis, and averages of both measurements were used.

In series [7] the test system is 95 GPCR profile. The experiment in a line: Wider binding screen (95 GPCR profile, MDS Pharma). The conditions noted are these: 95 GPCR profile (MDS Pharma Inc.). From the text:
[15] 95 GPCR profile (MDS Pharma Inc.).

Series [8] concerns the target EP2 (Homo sapiens, UniProt P43116). The experiment in a line: Radioligand binding, EP2 ([3H]-PGE2). As to conditions: cloned human receptor; mean of two determinations. Set-up: purchased MDS Pharma (Taiwan) and CEREP (France), contract assays. As for the experimental part: as §3
Series [9] addresses hERG channel (Homo sapiens, UniProt Q12809). In words: hERG patch clamp assay. The class given is cell-based. As to conditions: read-out: IC50 hERG channel functional activity.
The target of series [10] is IP (Homo sapiens, UniProt P43119). In words: Recombinant human IP receptor cAMP assay after elimination of receptor reserve (transient CHO). The class given is cell-based. Set-up: expressed in transfected cells. As to conditions: following elimination of receptor reserve. The source says:
Additional In Vitro Assays
To determine the potency and efficacy of compounds in cAMP assays in the absence of receptor reserve effects, the cDNA sequence of the human IP receptor was subqcloned into an expression plasmid containing a ubiquitin promoter in place of the more commonly used CMV promoter. The ubiquitin […]
level of receptor expression after transfection into a suitable cell line. This plasmid was transiently transfected into CHO cells using lipofectamine, following standard protocols. The quantity of transfected plasmid DNA was titrated down from 16 µg to 1 ng per transfection using empty vector as carrier DNA.

Series [11] concerns the target dog IP (Canis lupus familiaris, UniProt A0A8I3MUB8). The experiment in a line: Radioligand binding, dog IP ([3H]-iloprost). On the procedure: as §1, §2
Series [12] addresses CYP 2D6 (Homo sapiens, UniProt P10635). The experiment in a line: Cytochrome P450 inhibition, CYP2D6. The class given is in vitro ADME.
Setting [13] is: read-out: plasma protein binding.
Where [14] appears, read: read-out: Ki dog IP ([3H]-iloprost).

Sequence of rat IP (P43253 whole entry): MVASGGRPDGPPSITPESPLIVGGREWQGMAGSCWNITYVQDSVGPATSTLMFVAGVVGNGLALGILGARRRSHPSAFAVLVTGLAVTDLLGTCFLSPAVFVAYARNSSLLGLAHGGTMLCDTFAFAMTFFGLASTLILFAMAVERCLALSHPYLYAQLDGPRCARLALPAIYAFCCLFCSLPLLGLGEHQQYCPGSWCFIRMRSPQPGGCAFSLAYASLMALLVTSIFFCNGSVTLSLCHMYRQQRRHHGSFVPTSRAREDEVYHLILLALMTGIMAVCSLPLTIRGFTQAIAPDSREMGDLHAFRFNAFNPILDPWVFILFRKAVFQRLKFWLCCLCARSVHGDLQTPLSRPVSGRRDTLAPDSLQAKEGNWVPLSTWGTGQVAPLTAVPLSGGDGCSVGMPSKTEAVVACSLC
Sequence of dog IP (A0A8I3MUB8 1-381): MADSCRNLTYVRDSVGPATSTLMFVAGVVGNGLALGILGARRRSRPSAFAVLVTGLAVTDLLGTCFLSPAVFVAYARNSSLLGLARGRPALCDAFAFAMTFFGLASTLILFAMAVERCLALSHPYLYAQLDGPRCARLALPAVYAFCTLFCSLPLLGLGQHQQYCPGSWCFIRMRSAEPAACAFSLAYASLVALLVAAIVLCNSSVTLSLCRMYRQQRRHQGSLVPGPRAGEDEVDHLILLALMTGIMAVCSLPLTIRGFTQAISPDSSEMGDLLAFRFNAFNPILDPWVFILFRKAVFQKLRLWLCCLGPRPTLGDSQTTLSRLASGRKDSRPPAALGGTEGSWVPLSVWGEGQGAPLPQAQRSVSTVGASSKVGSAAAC
Sequence of IP (P43119 whole entry): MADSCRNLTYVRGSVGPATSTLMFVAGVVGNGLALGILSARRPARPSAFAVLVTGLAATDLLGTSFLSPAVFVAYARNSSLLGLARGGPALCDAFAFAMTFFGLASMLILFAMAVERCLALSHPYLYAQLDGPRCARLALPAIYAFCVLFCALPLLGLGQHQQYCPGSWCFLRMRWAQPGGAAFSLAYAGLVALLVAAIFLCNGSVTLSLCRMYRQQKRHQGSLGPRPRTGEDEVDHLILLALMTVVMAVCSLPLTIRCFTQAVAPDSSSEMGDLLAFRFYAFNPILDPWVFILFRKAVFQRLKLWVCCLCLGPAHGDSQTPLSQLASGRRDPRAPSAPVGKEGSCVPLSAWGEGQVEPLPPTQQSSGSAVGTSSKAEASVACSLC
Sequence of CYP 2D6 (P10635 whole entry): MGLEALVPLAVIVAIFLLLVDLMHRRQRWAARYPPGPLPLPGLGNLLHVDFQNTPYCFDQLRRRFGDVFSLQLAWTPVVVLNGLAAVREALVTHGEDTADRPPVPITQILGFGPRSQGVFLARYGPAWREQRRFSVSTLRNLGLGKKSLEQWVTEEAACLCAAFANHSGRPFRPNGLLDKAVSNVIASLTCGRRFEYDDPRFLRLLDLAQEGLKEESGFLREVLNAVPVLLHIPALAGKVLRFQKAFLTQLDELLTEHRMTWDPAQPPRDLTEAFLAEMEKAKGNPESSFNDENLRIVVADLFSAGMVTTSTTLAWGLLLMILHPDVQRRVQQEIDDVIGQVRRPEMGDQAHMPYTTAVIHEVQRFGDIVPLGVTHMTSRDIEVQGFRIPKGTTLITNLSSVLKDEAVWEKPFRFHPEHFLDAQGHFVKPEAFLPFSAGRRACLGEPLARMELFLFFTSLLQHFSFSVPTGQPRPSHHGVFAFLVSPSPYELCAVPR
Sequence of hERG channel (Q12809 whole entry): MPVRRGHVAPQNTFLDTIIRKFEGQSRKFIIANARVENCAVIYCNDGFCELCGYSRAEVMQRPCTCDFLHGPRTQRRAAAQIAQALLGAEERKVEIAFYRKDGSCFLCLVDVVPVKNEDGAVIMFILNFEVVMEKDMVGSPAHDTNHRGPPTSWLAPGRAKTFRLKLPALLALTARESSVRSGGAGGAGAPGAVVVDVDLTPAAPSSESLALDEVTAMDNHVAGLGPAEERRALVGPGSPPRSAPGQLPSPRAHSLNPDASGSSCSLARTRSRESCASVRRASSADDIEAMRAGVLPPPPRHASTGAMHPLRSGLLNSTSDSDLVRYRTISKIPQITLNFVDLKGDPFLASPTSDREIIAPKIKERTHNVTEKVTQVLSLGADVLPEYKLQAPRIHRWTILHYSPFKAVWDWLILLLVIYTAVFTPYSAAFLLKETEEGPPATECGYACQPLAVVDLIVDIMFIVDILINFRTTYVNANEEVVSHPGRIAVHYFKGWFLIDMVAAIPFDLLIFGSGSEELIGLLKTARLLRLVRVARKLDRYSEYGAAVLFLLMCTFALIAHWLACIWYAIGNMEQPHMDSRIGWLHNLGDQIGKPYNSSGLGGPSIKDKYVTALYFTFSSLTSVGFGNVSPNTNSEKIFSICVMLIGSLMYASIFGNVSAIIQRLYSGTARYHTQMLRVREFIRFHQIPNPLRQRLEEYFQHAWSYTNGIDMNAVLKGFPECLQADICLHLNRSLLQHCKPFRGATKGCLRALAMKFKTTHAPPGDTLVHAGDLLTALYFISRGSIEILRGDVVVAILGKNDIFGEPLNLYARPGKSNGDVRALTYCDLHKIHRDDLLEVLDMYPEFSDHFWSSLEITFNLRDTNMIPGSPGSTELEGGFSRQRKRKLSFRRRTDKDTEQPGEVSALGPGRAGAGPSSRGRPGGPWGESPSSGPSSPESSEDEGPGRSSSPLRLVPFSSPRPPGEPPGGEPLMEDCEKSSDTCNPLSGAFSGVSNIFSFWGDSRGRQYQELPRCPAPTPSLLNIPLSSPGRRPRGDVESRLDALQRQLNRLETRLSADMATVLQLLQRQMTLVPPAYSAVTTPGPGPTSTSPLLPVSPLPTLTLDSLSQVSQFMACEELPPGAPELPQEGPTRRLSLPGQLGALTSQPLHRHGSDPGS
Sequence of EP2 (P43116 whole entry): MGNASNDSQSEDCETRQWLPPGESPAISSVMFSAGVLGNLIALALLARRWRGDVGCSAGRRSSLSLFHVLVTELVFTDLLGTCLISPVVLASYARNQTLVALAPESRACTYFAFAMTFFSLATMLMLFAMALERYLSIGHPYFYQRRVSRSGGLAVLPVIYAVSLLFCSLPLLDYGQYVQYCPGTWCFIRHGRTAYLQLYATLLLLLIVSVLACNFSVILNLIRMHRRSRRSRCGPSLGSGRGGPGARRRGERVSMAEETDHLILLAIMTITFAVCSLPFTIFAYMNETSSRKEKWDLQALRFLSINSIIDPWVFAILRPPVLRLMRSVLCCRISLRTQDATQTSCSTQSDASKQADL
Sequence of CYP 2C19 (P33261 whole entry): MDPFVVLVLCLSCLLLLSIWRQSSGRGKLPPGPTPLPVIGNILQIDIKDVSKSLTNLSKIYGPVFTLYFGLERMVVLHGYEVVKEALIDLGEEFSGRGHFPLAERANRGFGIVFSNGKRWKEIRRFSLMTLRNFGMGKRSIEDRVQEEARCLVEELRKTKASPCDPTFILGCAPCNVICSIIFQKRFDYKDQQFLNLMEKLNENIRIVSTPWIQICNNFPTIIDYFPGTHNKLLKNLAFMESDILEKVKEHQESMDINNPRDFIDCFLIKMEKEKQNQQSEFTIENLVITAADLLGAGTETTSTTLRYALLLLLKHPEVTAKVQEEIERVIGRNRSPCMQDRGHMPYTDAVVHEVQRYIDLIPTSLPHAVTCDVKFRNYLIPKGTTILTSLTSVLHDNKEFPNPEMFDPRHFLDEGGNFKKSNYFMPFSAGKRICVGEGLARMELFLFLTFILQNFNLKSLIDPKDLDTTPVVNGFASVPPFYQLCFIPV

With `O=C(O)COC[C@H]1CC[C@H](COC(=O)N(c2ccccc2)c2ccc(Cl)cc2)CC1` [5c, Sodium 2-(((1r,4r)-4-(((4-Chlorophenyl)(phenyl)carbamoyloxy)methyl)cyclohexyl)methoxy)acetate], the IC50 (commonly the concentration at which inhibition is half-maximal) in series [1] was greater than 50000 nM; in series [9], greater than 30000 nM; in series [12] it was greater than 50000 nM. Besides, the results for the fraction unbound in [2] (read-out: free fraction) and in [2] (setting [13]) were 0.01 and roughly 0.01, respectively. In addition, the half-life in series [3] was greater than 1 h. The inhibitory constant (Ki) (usually the dissociation constant of the complex between target and ligand, obtained from inhibition or displacement) in series [4] amounted to 76 nM; in [5], 143 nM; in [8] it was 610 nM; in series [11] (setting [14]) it was 256 nM. In [6] (10 mg/kg oral twice daily), the “effect on hypertrophy (RV/(LV + S))” value was “did not show a statistically significant effect”. In addition, the “pulmonary vessel wall thickness” value in series [6] (30 mg/kg oral twice daily, 5 animals) is reported as “significantly reduce”. For the same compound, in series [6] (30 mg/kg oral twice daily, subset of the test group (5 animals)), the “MCT-induced increase in pulmonary arterial pressure (mPAP)” value is “significantly reduce”. Also, in series [6], the “inhibition of the MCT-induced increase in RV/(LV + S)” value is “dose-dependent inhibition”. Moreover, the “off-target liabilities in a wider screen” value in series [7] is recorded as “no additional off-target liabilities were observed”. Also, the “Efficacy (% vs. Iloprost) [95% CI], recombinant IP receptor cAMP” value in series [10] is 67 [64, 71] %.
With `O=C(O)COC[C@H]1CC[C@H](COC(=O)N(c2ccccc2)c2cccc(F)c2)CC1` [5g, 2-(((1r,4r)-4-(((3-Fluorophenyl)(phenyl)carbamoyloxy)methyl)cyclohexyl)methoxy)acetic Acid], the IC50 in [1] was greater than 50000 nM; in [9], greater than 30000 nM; in series [12], greater than 50000 nM. Moreover, the fraction unbound was 0.01 in series [2] (read-out: free fraction) and roughly 0.01 in [2] (setting [13]). Also, in series [3], the half-life was greater than 1 h. For the same compound, the Ki in [4] was 51 nM; in [5] it was 210 nM; in series [8] it was 570 nM; in series [11] (setting [14]), 183 nM. For the same compound, in [5] (human EP3v6 Ki versus human IP Ki), the “EP3/IP binding selectivity ratio” value is 30- to 50 fold. Besides, the “inhibition of the MCT-induced increase in RV/(LV + S)” value in [6] is reported as “dose-dependent inhibition”. Further, the “off-target liabilities in a wider screen” value in series [7] is on record as “no additional off-target liabilities were observed”.
As for `CC#CCC(C)[C@H](O)/C=C/[C@@H]1[C@H]2C/C(=C/CCCC(=O)O)C[C@H]2C[C@H]1O` (stereo partly drawn) [iloprost], the Ki in series [4] amounted to 1 nM; in series [5], 3700 nM; in series [11] it was 1.7 nM. Moreover, the “Efficacy (% vs. Iloprost) [95% CI], recombinant IP receptor cAMP” value in [10] is reported as 100%.
